The subject of test [1] is H1299 cells. The test can be described thus: Intracellular ATP assay. It is filed as cell-based, human. The protocol: Cellular lactate production was measured under normoxia with a fluorescence-based lactate assay kit (MBL). Phenol red-free RPMI medium without FBS was added to a 6 well-plate of subconfluent cells, and was incubated for 1 h at 37° C. After incubation, 1 ml of media from each well was assessed using the lactate assay kit. Cell numbers were counted by a microscope (×40). Oxygen consumption rates were measured with a Clark type electrode equipped with 782 oxygen meter (Strathkelvin Instruments). 1×10^7 cells were resuspended in RPMI 1640 medium with 10% FBS and placed into a water-jacked chamber RC300 (Strathkelvin Instruments) and recording was started immediately. Intracellular ATP concentration was measured by an ATP bioluminescent somatic cell assay kit (Sigma). 1×10^6 cells were trypsinized and resuspended in ultrapure water. Luminescence was measured with spectrofluorometer (SPECTRA Max Gemini; […]) immediately after the addition of ATP enzyme mix to cell suspension.

Test [2] relates to human primary leukemia cells. The test is described as follows: Primary leukemia cells from human patients. It is filed as cell-based. The text has this:
Approval of use of human specimens was given by the Institutional Review Board of Emory University School of Medicine. All clinical samples were obtained with informed consent with approval by the Emory University Institutional Review Board. Clinical information for the patients was obtained from the pathological files at Emory University Hospital under the guidelines and with approval from the Institutional Review Board of Emory University School of Medicine and according to the Health Insurance Portability and Accountability Act. Only samples from patients that were not previously treated with chemotherapy or radiation therapy were used. Mononuclear cells (MNCs) were isolated from peripheral blood and bone marrow samples from human leukemia patients or peripheral blood samples from healthy donors using lymphocyte separation medium (Cellgro).
Only samples from patients that were not previously treated with chemotherapy or radiation therapy were used. Mononuclear cells (MNCs) were isolated from peripheral blood and bone marrow samples from human leukemia patients or peripheral blood samples from healthy donors using lymphocyte separation medium (Cellgro).

Test [3] has as its system H1299 cells. The test can be described thus: Oxidative PPP flux assay using 14CO2 release. It is filed as cell-based, human. The protocol:
Cells were seeded on 6-cm dishes that are placed in a 10-cm dish with 2 sealed pinholes on the top. ^14CO2 released from cells was collected by completely sealing the 10-cm dish, in which the cells on the 6-cm dish were incubated in 2 ml of medium containing [1-^14C]- or [6-^14C]-glucose, respectively, at a final specific activity of 10 μCi/ml glucose at 37° C. for 3 h. The oxidative PPP flux was stopped by injecting 0.3 ml of 50% TCA through one of the holes on the top, and at the same time ^14CO2 released was trapped by injecting 0.3 ml of Hyamine Hydroxide into a small cup placed on the 10-cm dish through the second hole. Krebs cycle measurements, obtained in parallel samples incubated with [6-^14C]-glucose, were used to correct the oxidative PPP flux measurements obtained from samples incubated with [1-^14C]-glucose. Each dish was completely re-sealed with parafilm and incubated overnight at room temperature. Hyamine Hydroxide in the small cup was dissolved into 60% methanol and directly subjected to scintillation counting.

The subject of test [4] is H1299 cells. The test can be described thus: 14C-lipid synthesis and 14C-RNA synthesis assays. The class given is cell-based, human. How it is done: ^14C-lipids synthesized from ^14C-glucose were measured. […] Wells were washed with an additional 500 μL of hexane:isopropanol solution, and extracts were combined and air dried with heat. Extracted lipids were resuspended in 50 μL of chloroform, and subjected to scintillation counting. Scintillation counts were normalized with cell numbers counted by a microscope (×40). ^14C-RNA synthesized from ^14C-glucose was measured. […] RNA was then extracted using RNeasy columns (Qiagen) and ^14C-RNA was assayed by scintillation counter. ^14C counts for each sample were normalized by the amount of RNA.

Test [5] concerns H1299 cells. The test can be described thus: Cellular 2-PG and 3-PG measurement. It is filed as cell-based, human. The protocol: Cellular metabolites were extracted and spectrophotometrically measured as described previously with some modifications. To determine cellular concentration of 2-PG and 3-PG, 100 μL of packed cell pellets were homogenized in 1.5 ml of hypotonic lysis buffer (20 mM HEPES (pH 7.0), 5 mM KCl, 1 mM MgCl2, 5 mM DTT, and protease inhibitor cocktail). The homogenates were centrifuged in a cold room at 4° C. for 10 minutes at maximum speed, and the supernatants were applied to Amicon Ultra tubes with 10KDa cut off filter (Millipore). The flow through containing the metabolites was used for the measurement. NADH, ADP, and MgCl2 were added to the flow through to final concentrations of 0.14 mM, 1 mM, and 50 mM, respectively. Recombinant LDH and PKM1 proteins were added to final concentrations of 5 μg/ml and 10 μg/ml, respectively. Recombinant enolase protein was added to a final concentration of 50 μg/ml to measure cellular 2-PG. Once the reaction was initiated by enolase, a decrease in absorbance at 340 nm from NADH oxidation was measured by a DU800 spectrophotometer (Beckman). After termination of the enolase reaction, recombinant PGAM1 protein was added to a final concentration of 25 μg/ml and the decrease in absorbance at 340 nm was immediately monitored to measure cellular 3-PG. 100 μL of 2-PG and 3-PG (Sigma) diluted with 1.5 ml of hypotonic lysis buffer were used as the standards.
Alternatively, perchloric acid was used to quench metabolism and the acid extracts from H1299 cell lysates were then neutralized with KOH (DeBerardinis et al., 2007), followed by enzymatic reactions using the final supernatant to determine the 3-PG and 2-PG levels. An isotope-ratio based detection method was used to determine intracellular 3-PG and 2-PG levels in cells. In brief, pure standards were derivatized with a trimethylsilyl donor (Tri-Sil, Pierce) and used to determine the retention times of 2-PG and 3-PG on GC/MS. These standards were also used to identify parent ions containing all three 2-PG and 3-PG carbons on the derivatized molecule (m/z 459 for both 2-PG and 3-PG), and to generate algorithms for natural isotope abundance correction. Next, two dishes of H1299 cells were cultured in RPMI supplemented with [U-^13C]glucose so that approximately 25% of the total glucose pool was labeled. After 6 hours of culture, the cells were quickly rinsed in ice-cold normal saline, lysed in 1 mL of cold 50% methanol, and frozen in liquid nitrogen. […] The second sample was spiked with 25 nmoles of unlabeled 2-PG and 3-PG, derivatized, and analyzed by GC/MS. […] Assuming a 100 μL volume for the cell pellet, these figures correlate to intracellular concentrations of 66 μM for 2-PG and 81 μM for 3-PG, very close to the values measured by the enzymatic assay.

[6] abbreviates: H1299 cells treated with PGMI-004A.
The mark [7] stands for this setting: primary leukemia cells from a representative AML patient.
The mark [8] stands for this setting: samples from 7 out of 8 leukemia patients.
The mark [9] stands for this setting: H1299 PGAM1 knockdown cells, methyl-2-PG.

Turning to `O=C1c2ccccc2C(=O)c2c1cc(S(=O)(=O)Nc1ccc(C(F)(F)F)cc1)c(O)c2O` [PGMI-004A, N-(4-trifluoromethyl)-penyl-3,4-dihydroxy-9,10-dioxo-2-anthracenesulfonamide], the “intracellular ATP levels” value with H1299 cells [1] (setting [6]) is on record as “no significant effect on intracellular ATP levels”. In test [2] (setting [7]), the 2-PG levels result is listed as “decreased” and the 3-PG levels result is given as “increased”. In addition, in test [2] (setting [8]), the PGAM1 activity entry was “reduced PGAM1 activity”, the cell viability result is recorded as “decreased cell viability” and the lactate production entry was “reduced”. Further, the “oxidative PPP flux” value in the test with H1299 cells [3] (setting [6]) is “decreased oxidative PPP flux”. For the same compound, in the test with H1299 cells [4] (setting [6]), the “biosynthesis of RNA” value was “reduced” and the biosynthesis of lipids entry is on record as “reduced”. Besides, in the test with H1299 cells [5] (setting [6]), the 2-PG levels entry is “decreased” and the 3-PG levels entry is “increased”.
On to `COC(=O)[C@@H](CO)OP(=O)(O)O` [methyl-2-PG, methyl ester of D(+)-2-phosphoglyceric acid, reference compound], for which, in the test with H1299 cells [1] (H1299 cells with stable knockdown of PGAM1, methyl-2-PG), the “intracellular ATP levels” value is reported as “no significant effect on intracellular ATP levels”. Further, the “cell viability in PGMI-004A-treated primary leukemia cells” value in test [2] (representative AML patients, methyl-2-PG added to PGMI-004A) is given as “rescues the decreased cell viability”. Further, the “oxidative PPP flux” value in the test with H1299 cells [3] (setting [9]) is reported as “rescues the decreased oxidative PPP flux”. In addition, the “biosynthesis of RNA and lipids” value with H1299 cells [4] (setting [9]) was “rescues”. For the same compound, the 2-PG cellular levels result with H1299 cells [5] (diverse PGAM1 knockdown cancer cells treated with methyl-2-PG) was “increased 2-PG cellular levels”. Also, in the test on H1299 cells [5] (diverse PGAM1 knockdown cells treated with methyl-2-PG), the 3-PG concentrations result is “decreased 3-PG concentrations”.

Values taken from patent publication US10464890B2, “PGAM1 inhibitors and methods related thereto” (Emory University, priority 2011, dated 2019).
